Experiment: Inhibition of NOS in Sprague-Dawley rat brain by oxyhaemoglobin assay

Question: With `N#Cc1c2ccccc2cn1C12CC3CC(CC(C3)C1)C2` as the molecule, how does the IC50 read?
Answer: The IC50 was 0.291 µM.

Question: And the pIC50?
Answer: The pIC50 was 4.52.

Question: For `O=C(NC12CC3CC(CC(C3)C1)C2)c1n[nH]c2ccccc12`, which IC50 is on record?
Answer: The IC50 was 2.53 µM.

Question: What about the pIC50 of the same molecule?
Answer: The pIC50 was 3.52.

Question: With `CNc1ccccc1C(=O)NC12CC3CC(CC(C3)C1)C2` as the molecule, how does the pIC50 read?
Answer: The pIC50 was 2.53.

Question: With `CNc1ccccc1C(=O)OC12C3C4CC5C6C4C1C6C1(OCCCN12)C53` (centres undefined) as the molecule, how does the pIC50 read?
Answer: The pIC50 was 2.93.

Question: For `O=C(O)c1n[nH]c2ccccc12`, which IC50 is on record?
Answer: The IC50 was 9.65 µM.

Question: And the pIC50?
Answer: The pIC50 was 3.28.

Question: For `N#CSc1c2ccccc2cn1C12CC3CC(CC(C3)C1)C2`, which pIC50 is on record?
Answer: Its pIC50 is 3.88.

Question: With `O=[N+]([O-])c1c2ccccc2cn1C12CC3CC(CC(C3)C1)C2` as the molecule, how does the pIC50 read?
Answer: The pIC50 was 3.74.

Question: Which IC50 does the source give for `O=C(OC12C3C4CC5C6C4C1C6C1(OCCCN12)C53)c1n[nH]c2ccccc12` (centres undefined) here?
Answer: The IC50 was 0.35 µM.

Question: What about the pIC50 of the same molecule?
Answer: The pIC50 was 4.22.

Question: With `N=C(N)NN` [PIMAGEDINE] as the molecule, how does the IC50 read?
Answer: Its IC50 is 19.4 µM.

Question: What about the pIC50 of the same molecule?
Answer: The pIC50 was 2.72.

— ChEMBL document CHEMBL1144247, “Fluorescent polycyclic ligands for nitric oxide synthase (NOS) inhibition” (Bioorg Med Chem, 2008)
